Results on seven compounds are retold here after ChEMBL document CHEMBL6134887, “Linker and Head-Group Exploration of Anti-MRSA Triaromatic Pleuromutilins” (J Med Chem, 2025).

The test system of data set [1] is Enterococcus faecium. Kind of data set: Antibacterial activity against vancomycin, ampicillin and ciprofloxacin resistant Enterococcus faecium clinical isolate 1 assessed as inhibition of bacterial growth incubated for 20 to 24 hrs by microbroth serial dilution method. As to conditions: time 20-24 hrs, read-out: MIC100. The data set is classed as functional. (In general: Dilution methods test growth across graded concentrations, often in twofold steps.)

For another data set, the system named is Streptococcus pneumoniae. Nature of the data set: Antibacterial activity against Streptococcus pneumoniae assessed as inhibition of bacterial growth incubated for 20 to 24 hrs by microbroth serial dilution method. Format: functional. As to conditions: time 20-24 hrs, read-out: MIC100.
Data set [2] is described as follows: Metabolic stability in human liver assessed as intrinsic clearance at 1 uM measured up to 30 mins by LC-MS/MS analysis. The data set is classed as ADME, tissue-based. As to conditions: read-out: CLH.
Another data set concerns Enterococcus faecalis. Kind of data set: Antibacterial activity against Enterococcus faecalis assessed as inhibition of bacterial growth incubated for 20 to 24 hrs by microbroth serial dilution method. As to conditions: time 20-24 hrs, read-out: MIC100. The data set is classed as functional.
A short description of data set [3]: Metabolic stability in mouse liver assessed as intrinsic clearance at 1 uM measured up to 60 mins by LC-MS/MS analysis. Format: ADME, tissue-based. As to conditions: read-out: CLH.
Data set [4] can be described thus: Metabolic stability in mouse liver microsomes assessed as half-life at 1 uM measured up to 60 mins by LC-MS/MS analysis. The data set is classed as ADME, Microsome. For orientation: Liver microsomes are vesicles of endoplasmic reticulum, rich in cytochrome P450 enzymes.
Data set [5] deals with Enterococcus faecium. Nature of the data set: Antibacterial activity against vancomycin, ampicillin and ciprofloxacin resistant Enterococcus faecium clinical isolate 5 assessed as inhibition of bacterial growth incubated for 20 to 24 hrs by microbroth serial dilution method. The data set is classed as functional. As to conditions: time 20-24 hrs, read-out: MIC100.
Data set [6] has as its system Staphylococcus aureus. Nature of the data set: Antibacterial activity against methicillin resistant Staphylococcus aureus USA300 FPR3757 assessed as inhibition of bacterial growth incubated for 20 to 24 hrs by microbroth serial dilution method. As to conditions: time 20-24 hrs, read-out: MIC100. The data set is classed as functional.
Data set [7] is described as follows: Metabolic stability in human liver microsomes assessed as half-life at 1 uM measured up to 30 mins by LC-MS/MS analysis. Format: ADME, Microsome.
In the next data set the test system is Caco-2. Kind of data set: Cytotoxicity against human Caco-2 cells assessed as reduction in cell viability at 1 to 10 uM measured after 1 to 8 days by Celltiter-Glo reagent based assay. As to conditions: caco-2, 10 µM, dose lower 1 µM, time lower 1 day, dose upper 10 µM, time upper 8 day. The data set is classed as toxicity. In general terms: Cellular ATP, detected with luciferase, serves as a proxy for viable cell number.

The next data set concerns MDCK-MDR1. Nature of the data set: Cytotoxicity against MDCKII-MDR1 cells assessed as reduction in cell viability at 1 to 10 uM measured after 3 hrs by Celltiter-Glo reagent based assay. Format: toxicity, Canis lupus familiaris. As to conditions: dog, mdck-mdr1, 3 h, dose 1-10 µM.
Data set [8] has as its system Staphylococcus aureus. Nature of the data set: Antibacterial activity against methicillin susceptible Staphylococcus aureus ATCC 25923 assessed as inhibition of bacterial growth incubated for 20 to 24 hrs by microbroth serial dilution method. Format: functional. As to conditions: time 20-24 hrs, read-out: MIC100.
The test system of data set [9] is Staphylococcus aureus. Kind of data set: Antibacterial activity against methicillin susceptible Staphylococcus aureus ATCC 29213 assessed as inhibition of bacterial growth incubated for 20 to 24 hrs by microbroth serial dilution method. The data set is classed as functional. As to conditions: time 20-24 hrs, read-out: MIC100.
For data set [10], the system named is Staphylococcus aureus. Nature of the data set: Antibacterial activity against methicillin resistant Staphylococcus aureus clinical isolate 52518 assessed as inhibition of bacterial growth incubated for 20 to 24 hrs by microbroth serial dilution method. Format: functional. As to conditions: time 20-24 hrs, read-out: MIC100.
For another data set, the system named is DU-145. Kind of data set: Cytotoxicity against human DU-145 cells assessed as reduction in cell viability at 1 to 10 uM measured after 3 hrs by Celltiter-Glo reagent based assay. The data set is classed as toxicity. As to conditions: du-145, 3 h, dose 1-10 µM.
The test system of data set [11] is Staphylococcus aureus. Nature of the data set: Antibacterial activity against methicillin resistant Staphylococcus aureus clinical isolate 933010 assessed as inhibition of bacterial growth incubated for 20 to 24 hrs by microbroth serial dilution method. Format: functional. As to conditions: time 20-24 hrs, read-out: MIC100.
Data set [12] deals with Staphylococcus aureus. Kind of data set: Antibacterial activity against methicillin resistant Staphylococcus aureus clinical isolate 55508 assessed as inhibition of bacterial growth incubated for 20 to 24 hrs by microbroth serial dilution method. Format: functional. As to conditions: time 20-24 hrs, read-out: MIC100.
For data set [13], the system named is Staphylococcus aureus. Nature of the data set: Antibacterial activity against mupirocin resistant Staphylococcus aureus 4828 assessed as inhibition of bacterial growth incubated for 20 to 24 hrs by microbroth serial dilution method. The data set is classed as functional. As to conditions: time 20-24 hrs, read-out: MIC100.

Values after ≈ are worked out from the molar mass of the structure shown.

Turning to `C=C[C@]1(C)C[C@@H](OC(=O)Cn2cc(-c3cccc(Nc4ncnc5[nH]cnc45)c3)nn2)[C@]2(C)[C@H](C)CC[C@]3(CCC(=O)[C@H]32)[C@@H](C)[C@@H]1O`, the MIC with Enterococcus faecium [1] turned out to be 0.25 µg/mL (≈ 0.391 µM); in the data set on Streptococcus pneumoniae it was 0.5 µg/mL (≈ 0.783 µM); in the data set with Enterococcus faecalis it was 0.5 µg/mL (≈ 0.783 µM); with Enterococcus faecium [5] it was 0.25 µg/mL (≈ 0.391 µM); in the data set with Staphylococcus aureus [6], 0.06 µg/mL (≈ 0.0939 µM). For the same compound, the CLint scaled at 1 µM worked out at 188 L/h/kg in data set [2] and 489 L/h/kg in [3]. In addition, the half-life at 1 µM stood at 40.2 s in data set [4] and 2 min in [7].

Regarding `C=C[C@]1(C)C[C@@H](OC(=O)Cn2cc(-c3cncc(C(=O)Nc4ccc(N)nc4)c3)nn2)[C@]2(C)[C@H](C)CC[C@]3(CCC(=O)[C@H]32)[C@@H](C)[C@@H]1O`, the MIC with Enterococcus faecium [1] was found to be 1 µg/mL (≈ 1.56 µM); in the data set with Streptococcus pneumoniae it was 1 µg/mL (≈ 1.56 µM); in the data set with Enterococcus faecalis it was 1 µg/mL (≈ 1.56 µM); in the data set on Enterococcus faecium [5] it was 1 µg/mL (≈ 1.56 µM); with Staphylococcus aureus [6], 0.25 µg/mL (≈ 0.39 µM). In addition, the CLint scaled at 1 µM in [3] was 546 L/h/kg. Besides, the half-life at 1 µM in [4] was found to be 36 s.

In the case of `C=C[C@]1(C)C[C@@H](OC(=O)Cn2cc(-c3cccc(Nc4cc(N)ncn4)c3)nn2)[C@]2(C)[C@H](C)CC[C@]3(CCC(=O)[C@H]32)[C@@H](C)[C@@H]1O`, the MIC worked out at 0.25 µg/mL (≈ 0.407 µM) with Enterococcus faecium [1]; 1 µg/mL (≈ 1.63 µM) in the data set on Streptococcus pneumoniae; 0.5 µg/mL (≈ 0.815 µM) in the data set with Enterococcus faecalis; 0.25 µg/mL (≈ 0.407 µM) with Staphylococcus aureus [8]; 0.015 µg/mL (≈ 0.0244 µM) in the data set on Staphylococcus aureus [9]; 0.06 µg/mL (≈ 0.0978 µM) in the data set with Staphylococcus aureus [10]. Besides, the MIC in the data set with Staphylococcus aureus [11] is 0.12 µg/mL (≈ 0.196 µM); with Staphylococcus aureus [12], 0.12 µg/mL (≈ 0.196 µM); with Staphylococcus aureus [13], 0.12 µg/mL (≈ 0.196 µM); in the data set on Enterococcus faecium [5] it was 0.25 µg/mL (≈ 0.407 µM); in the data set on Staphylococcus aureus [6] it was 0.03 µg/mL (≈ 0.0489 µM). Moreover, the Activity entry with Caco-2, in the data set on MDCK-MDR1 and in the data set with DU-145 was “Non-toxic” throughout. The CLint scaled at 1 µM came out at 94.9 L/h/kg in data set [2] and 434 L/h/kg in data set [3]. For the same compound, the results for the half-life at 1 µM in data set [4] and in [7] were 45.6 s and 3.9 min, respectively.

As to `C=C[C@]1(C)C[C@@H](OC(=O)Cn2cc(-c3cncc(NC(=O)c4cnc(OC)cn4)c3)nn2)[C@]2(C)[C@H](C)CC[C@]3(CCC(=O)[C@H]32)[C@@H](C)[C@@H]1O`, the MIC in the data set with Enterococcus faecium [1] came to 0.06 µg/mL (≈ 0.0912 µM); in the data set on Streptococcus pneumoniae, 1 µg/mL (≈ 1.52 µM); in the data set on Enterococcus faecalis it was 0.12 µg/mL (≈ 0.182 µM); in the data set with Staphylococcus aureus [8], 0.12 µg/mL (≈ 0.182 µM); in the data set with Staphylococcus aureus [9] it was 0.06 µg/mL (≈ 0.0912 µM); in the data set on Staphylococcus aureus [10], 0.06 µg/mL (≈ 0.0912 µM). The MIC is 0.12 µg/mL (≈ 0.182 µM) with Staphylococcus aureus [11]; 0.12 µg/mL (≈ 0.182 µM) in the data set with Staphylococcus aureus [12]; 0.12 µg/mL (≈ 0.182 µM) in the data set on Staphylococcus aureus [13]; 0.06 µg/mL (≈ 0.0912 µM) with Enterococcus faecium [5]; 0.06 µg/mL (≈ 0.0912 µM) with Staphylococcus aureus [6]. For the same compound, the Activity result in the data set with Caco-2, in the data set on MDCK-MDR1 and in the data set on DU-145 was “Non-toxic” each time. In addition, the CLint scaled at 1 µM in data set [2] is 65.4 L/h/kg; in [3], over 600 L/h/kg. The half-life at 1 µM was 31.8 s in [4] and 5.7 min in [7].

With `C=C[C@]1(C)C[C@@H](OC(=O)CS[C@@H]2CC[C@@H](N)C[C@H]2O)[C@]2(C)[C@H](C)CC[C@]3(CCC(=O)[C@H]32)[C@@H](C)[C@@H]1O` [LEFAMULIN], the MIC was 0.12 µg/mL (≈ 0.236 µM) with Staphylococcus aureus [8] and 0.25 µg/mL (≈ 0.492 µM) in the data set on Staphylococcus aureus [9]. The CLint scaled at 1 µM in data set [3] came out at 28.7 L/h/kg. For the same compound, the half-life at 1 µM in data set [4] worked out at 690 s.

As to `C=C[C@]1(C)C[C@@H](OC(=O)CSC(C)(C)CNC(=O)[C@H](N)C(C)C)[C@]2(C)[C@H](C)CC[C@]3(CCC(=O)[C@H]32)[C@@H](C)[C@@H]1O` [VALNEMULIN], the MIC in the data set on Enterococcus faecium [1] came to 0.015 µg/mL (≈ 0.0266 µM); with Streptococcus pneumoniae, 0.06 µg/mL (≈ 0.106 µM); with Enterococcus faecalis, 0.03 µg/mL (≈ 0.0531 µM); in the data set with Staphylococcus aureus [8], 0.12 µg/mL (≈ 0.212 µM); with Staphylococcus aureus [9] it was 0.03 µg/mL (≈ 0.0531 µM); with Staphylococcus aureus [10], 0.06 µg/mL (≈ 0.106 µM). The MIC with Staphylococcus aureus [11] was 0.25 µg/mL (≈ 0.443 µM); in the data set on Staphylococcus aureus [12] it was 0.12 µg/mL (≈ 0.212 µM); in the data set with Staphylococcus aureus [13], 0.06 µg/mL (≈ 0.106 µM); with Enterococcus faecium [5] it was 0.015 µg/mL (≈ 0.0266 µM); in the data set with Staphylococcus aureus [6], 0.06 µg/mL (≈ 0.106 µM). The CLint scaled at 1 µM was under 5.16 L/h/kg in data set [2] and 212 L/h/kg in data set [3]. The half-life at 1 µM in data set [4] was 46.8 s; in data set [7] it was over 77.9 min.

Turning to `C=C[C@]1(C)C[C@@H](OC(=O)Cn2cc(-c3ccc(Cn4cnc5c(N)ncnc54)nc3)nn2)[C@]2(C)[C@H](C)CC[C@]3(CCC(=O)[C@H]32)[C@@H](C)[C@@H]1O`, the MIC in the data set on Staphylococcus aureus [8] and in the data set on Staphylococcus aureus [9] was 0.06 µg/mL (≈ 0.0918 µM) each time. Also, in [3], the CLint scaled at 1 µM amounted to 571 L/h/kg. Moreover, in [4], the half-life at 1 µM was 34.8 s.

For orientation: half-life means how long it takes for the measured level to halve.
